In US20150344535A1, “NEUROTROPHIN-TYROSINE KINASE RECEPTOR SIGNALING” (THE UNIVERSITY OF QUEENSLAND, priority 2012, published 2015):

Experiments:
PC12 cells = assay: NGF-FITC binding by flow cytometry, PC12 cells; conditions: for % of cell population with FITC above background / Maximal fluorescence per cell of the population / Mean fluorescence per FITC-positive cell / Median population fluorescence: NGF-FITC
Experimental: The NGF was conjugated to FITC by standard methods and detailed flow cytometry acquisition and analysis. For NGF-FITC conjugation 400 μg βNGF in 200 μl pH 8.5 NaHCO3 buffer was mixed with 5-10 μl of 10 mg/ml FITC in 100 μl DMSO for 10 hours at 4° C. on an orbital shaker set to 100 rpm. The excess FITC was removed by dialysis against 3 changes of 5 L of 10 mM Tris, 150 mM NaCl, 0.2% acetic acid, pH 8.2 for 24 hours at 4° C. Conjugate F/P characterization was determined by measuring absorbance at 280 nm and 495 nm according to manufacturer's instructions. Biological activity of the NGF-FITC conjugate was tested by performing PC12 cell neurite outgrowth assays unlabelled NGF, and comparing the levels of neuritogenesis. NGF-FITC conjugates were used within 4 weeks of synthesis.
For the flow cytometry NGF binding assays, fluorescence cell parameters of at least 20,000 events for PC12 cells and 100,000 events for HEK293 cells were acquired by flow cytometry list mode and measurements were performed on a single cell basis (with compensation for double event counting). Dead cells and debris were gated out of the analysis on the basis of forward scatter fluorescence, and mean, median and maximal fluorescence values of the gated cell populations were analysed using FACS Diva Software (Becton-Dickinson Biosciences) and FACS Express Software (Becton-Dickinson Biosciences).
Background fluorescence of HEK293 cells was non-transfected cells (±c29 or scrambled peptide treatment) treated with 26 nM NGF-FITC. For PC12 cells, the control population was cells that had not been treated with NGF-FITC. Analysis of real-time NGF-FITC receptor binding experiments was performed on 550,000-600,000 cells at 4° C. in serum free NB medium and binding kinetics were calculated from raw data files compressed to 50,000 binding events using FlowJo and MatLab Software. Data was plotted with the use of GraphPad Prism.
Only NGF-FITC preparations that promoted equivalent neurite outgrowth of PC12 cells to that of unlabelled NGF were used in binding experiments. To investigate NGF binding, PC12 or transfected HEK293 cells were serum starved for 4 hours, harvested, washed with Dulbecco's Modified Eagle Medium (DMEM), and counted. When used, c29 or scrambled peptide were added to cultures for the third hour of the serum starvation procedure. 1×10^7 cells/ml suspended in 500 μl of serum-free DMEM were incubated with 26 nM NGF-FITC on ice for 60 minutes before analysis. For binding competition assays, following 1 hour in NGF-FITC, cells were washed with ice-cold PBS containing 0.1% normal bovine serum and incubated on ice with unlabeled NGF at concentrations ranging from 100 pM to 10 μM for 30 minutes, then washed twice in PBS before being analysed on a BD Flow Cytometer FACS Scan (Becton-Dickinson).
First, to determine the concentration of c29 required to modulate NGF binding, c29 levels were titrated with a fixed concentration of NGF-FITC.

EGF receptor = biological target: T1, EGF receptor (Homo sapiens, UniProt P00533); assay: Biotinylated peptide pull down of EGF receptor; type: binding; conditions: lysate of transfected HEK293 cells, FIG. 4D
T1 construct: GFP; expressed in transfected cells; host or cells: HEK293
Experimental: For peptide pull down assays, the biotinylated c29 or LC1 control peptides were incubated with protein A-sepharose beads or Dynabeads MyOne Streptavidin T1 (Invitrogen) overnight at 4° C. Cell lysates were then added to the peptide-protein A-sepharose complex or Dynabeads MyOne Streptavidin T1 and incubated for 3 hours at 4° C. Peptide-receptor complexes were washed extensively with RIPA lysis buffer and eluted by boiling in Laemmli sample buffer. For p75^NTR construct immunoprecipitations, HEK293 cells were treated with NGF at 50 ng/ml for 10 minutes 48 hours after transfection with 1 μg DNA per well. Cells were immediately harvested in ice-cold phosphate buffered saline (PBS) and washed twice, then lysed in 1 ml of lysis buffer. Cell lysates were pre-cleared in 75 μl (1:2) protein-G sepharose: PBS by rotation end-over-end for 2 hours at 4′C. Lysates were then incubated with 3-5 μg antibody, either mouse-anti-YFP/GFP (Roche) or rabbit-anti-human p75^NTR intracellular domain antibody (Promega), and rotated end-over-end for 2 hours at 4° C.
Immunoprecipitation was performed by the addition of 75 μl (1:2) protein-G sepharose: PBS and incubation end-over-end for 16 hours at 4° C. The immunoprecipitate was washed 4 times with 1 ml of PBS then eluted in 60 μl 2×LDS sample buffer. […]

Sequence: KRWNSCKQNKQGANSRPVNQTPPPEGEKL (c29- Fragment of p75ICD) [29 amino acid peptide of the p75NTR juxtamembrane Chopper domain; delivered to cells linked to PTD4 or disulfide-linked carrier]
- % of cell population with FITC above background (PC12 cells; c.f. PC12): 115.7 ± 19.7%
- Maximal fluorescence per cell of the population (PC12 cells; c.f. PC12): 123.6 ± 17.3%
- Mean fluorescence per FITC-positive cell (PC12 cells; c.f. PC12): 126.3 ± 4.8%
- Median population fluorescence (PC12 cells; c.f. PC12): 127.4 ± 8.1%
- % of cell population with FITC above background (PC12 cells; c.f. PC12 + SC): 115.3 ± 13.4%
- Maximal fluorescence per cell of the population (PC12 cells; c.f. PC12 + SC): 123.1 ± 5.2%
- Mean fluorescence per FITC-positive cell (PC12 cells; c.f. PC12 + SC): 121.4 ± 5.5%
- Median population fluorescence (PC12 cells; c.f. PC12 + SC): 122.5 ± 8.4%
- all measured fluorescence parameters of the FITC-positive population (PC12 cells; PC12 cells, compared to control or scrambled peptide-treated cells): increased
- c29 concentration at which an increase in median fluorescence was observed (PC12 cells; fixed concentration of NGF-FITC, FIG. 10A): 1 pM
- pull down of EGF receptor (EGF receptor): did not pull down
